Molecules are shown by their SMILES.

The test system of experiment [1] is bacteria belonging to the group Proteus. The experiment is described as follows: Differentiation of the group Proteus from other bacteria in liquid medium (Example 7). The experiment is classed as cell-based. To be noted: after 48 hours. How it is done: Two media were prepared according to the usual techniques. […] The composition of the Media III and IV for one liter of final medium is as follows: [table] The pH of the media was adjusted to approximately 7.2. In Medium III, the detection agent for the enzymatic activity such as deaminase activity which was used is the natural amino acid L-histidine, at 1.5 g/l; in Medium IV, the detection agent for the enzymatic activity such as deaminase activity which is used is of [sic] N-toluene-sulfonyl-L-histidine, at 0.5 g/l. The media were distributed into test tubes, in a sterile manner. These two media were inoculated with the 12 bacterial strains described in Example 6. The tubes were incubated for 48 hours at 37° C., and were examined visually after 48 hours according to the following interpretation: the browning of the tube reflects the presence of an enzymatic activity such as deaminase activity, and thus of a bacterium of the group Proteus, the absence of browning signifies the absence of bacteria of the group Proteus.

For experiment [2], the system named is strains which belong to the group Proteus. The experiment is described as follows: Example of a gelled medium with O-toluene-sulfonyl-L-tyrosine and iron citrate. As to conditions: 0.5 g/l with iron citrate at 0.5 g/l in gelled medium; after 18 to 24 hours of incubation. Format: cell-based. The text has this:
As an example of a gelled medium, O-toluene-sulfonyl-L-tyrosine at 0.5 g/l and iron citrate at 0.5 g/l can be incorporated into the culture medium, in the following medium:
this medium being able to be inoculated with various Gram-negative or Gram-positive microorganisms.

With `N[C@@H](Cc1c[nH]cn1)C(=O)O` [L-histidine], the “differentiation of bacteria of the group Proteus from those not belonging thereto” value in experiment [1] is “high sensitivity and specificity”.

Regarding `Cc1ccc(S(=O)(=O)Oc2ccc(C[C@H](N)C(=O)O)cc2)cc1` [Example 2, 4-O-tosyl-L-tyrosine], in experiment [2], the “colour of colonies of strains of the group Proteus” value was “brown colonies”.

For the origin of these results see patent US6733986B1, “Method and agent for determining a deaminase enzymatic activity” (Bio Merieux, priority 1997, dated 2004).
